Reference: patent US20240352013A1, “BICYCLIC FUSED PYRAZOLE DERIVATIVES FOR THE TREATMENT OF RESPIRATORY INFECTIONS INCLUDING RSV” (GEORGIA STATE UNIVERSITY RESEARCH FOUNDATION, INC., priority 2021, published 2024)
Where two headings read alike, the source gives them in different places.

Key:
measles virus polymerase = measles virus polymerase (Measles virus, UniProt P12576); details: found previously (45); cited from earlier work
[1] = Cytotoxicity assay (PrestoBlue) in HEp-2 cells; format: cell-based, human; details: human; HEp-2 cells, 48-hour incubation; max concentration tested
Procedure: (§1) To determine the effect of compound on cell metabolism, HEp-2 cells were seeded at 50% confluence in 96-well plates and were incubated with 3-fold serial dilution of compound from 5 or 50 μM as described, including positive and negative controls for normalization. After 48-hour incubation at 37° C., cells were incubated with PrestoBlue (ThermoFisher Scientific) for 1 hour at 37° C. and fluorescence measured with a H1 synergy plate reader (Biotek).
(§2) After 48-hour incubation at 37° C., cells were incubated with PrestoBlue (ThermoFisher Scientific, cat #A-13262) for 1 h at 37° C. and fluorescence measured with a H1 synergy plate reader (BioTek).

HEp-2 cells = experiment: Cytotoxicity assay (PrestoBlue) in HEp-2 cells; format: cell-based, human; details: for cytotoxicity: FIG. 24; for CC50: HEp-2 cells, 48-hour incubation, max concentration tested
Procedure: as §1, §2

recRSV-fireSMASh [2] = experiment: microbe, parasite or virus in culture; format: cell-based; details: human respiratory syncytial virus, HAE, read-out: “F1” HAE C50 (first)
recRSV-fireSMASh [3] = experiment: microbe, parasite or virus in culture; format: cell-based; details: human respiratory syncytial virus, HAE, read-out: “M4” HAE C50 (first)
recRSV-fireSMASh L1502Q = experiment: microbe, parasite or virus in culture; format: cell-based; details: human respiratory syncytial virus; recombinant recRSV-fireSMASh, HEp-2, RSV L L1502Q
recRSV-fireSMASh Y1631H = experiment: microbe, parasite or virus in culture; format: cell-based; details: human respiratory syncytial virus; recombinant recRSV-fireSMASh, HEp-2, RSV L Y1631H
recRSV-fireSMASh H1632Q = experiment: microbe, parasite or virus in culture; format: cell-based; details: human respiratory syncytial virus; recombinant recRSV-fireSMASh, HEp-2, RSV L H1632Q
“F1” HAE = details: “F1” donor primary HAE cells
“M4” HAE = details: “M4” donor primary HAE cells
recRSV-mKate [4] = experiment: Lung histopathology of RSV-infected mice; details: 50 mg/kg initiated 12 hours after infection
Procedure: Mice were divided randomly into groups of 5, and infected intranasally with 500,000 TCID50 (25 μl/nare) of recRSV-mKate in Phosphate-Buffered Saline. Mice were anesthetized with ketamine/xylazine. Treatments were administrated via oral gavage in a 200 μl suspension of 1% Methylcellulose in water. Temperature and body weight were determined on a daily and twice-daily basis, respectively. Efficacy studies were terminated at peak viral replication at 4.5 days post-infection, mice were euthanized and lungs harvested and weighted.
For histopathology, mice were subjected to cervical dislocation 4.5 days after infection and lungs perfused with 10% NBF prior to extraction. Lungs were stored in 10% NBF for 24 hours, followed by incubation in 70% EtOH for two days and embedding into wax blocks, using a 21-hour alcohol-xylene-wax embedding sequence. Blocks were sectioned at ˜4 μm thickness, sections mounted onto microscopy slides, and stained with hematoxylin and eosin (H&E). Slides were examined by a board-certified veterinary pathologist, who was blinded to the treatment groups. Lesions were scored according to the following scale. […]

recRSV-A2line19F-[mKate] = experiment: In vivo efficacy in RSV-infected mice (lung viral titer); details: for in vivo lung titer reduction in RSV-infected mice: oral gavage twice daily from 10 h post-infection, lungs 4.5 days after infection; for Lung viral load reduction (log10 TCID50/ml) relative to vehicle-treated: 50 mg/kg bid, therapeutic treatment 10 hours after infection, 4.5 days post-infection
Procedure: For efficacy studies, mice were randomly divided into groups (n=5) and infected intranasally with 5×10^5 TCID50 (25 μl per nare) of recRSV-A2line19F-[mKate] in PBS while under anesthesia with ketamine/xylazine. Treatment (compound or vehicle) was administrated at 10 h post-infection via oral gavage in a 200 μl suspension of 1% methylcellulose and administrated twice daily. Temperature and food consumption were monitored daily, body weight was determined twice daily. All animals were euthanized at 4.5 days after infection and lungs were harvested. To determine lung viral titers, lungs were weighted and homogenized with a bead beater in 300 μl PBS in 3 bursts of 20 seconds by 5-minute rest on ice after each cycle. Samples were clarified for 5 minutes at 4° C. and 20,000×g, supernatant aliquoted and stored at −80° C. before being titrated by median tissue culture infectious dose (TCID50) normalized per gram of lung tissue and per ml of lysate. RSV viral titers were determined using standard 50% tissue infective dose (TCID50) assay in HEp-2 cells and 96 well plates, with a Spearman and Karber based method using fluorescence for detection.
Mice were divided randomly into groups of 5, and infected intranasally with 500,000 TCID50 (25 μl/nare) of recRSV-mKate in Phosphate-Buffered Saline. Mice were anesthetized with ketamine/xylazine. Treatments were administrated via oral gavage in a 200 μl suspension of 1% Methylcellulose in water. Temperature and body weight were determined on a daily and twice-daily basis, respectively. Efficacy studies were terminated at peak viral replication at 4.5 days post-infection, mice were euthanized and lungs harvested and weighted. Lung viral titers were determined after tissue homogenization with a bead beater with 300 μl PBS (3 bursts of 30 seconds at 4° C., separated by 30-second rest at 4° C.). Homogenates were clarified (5 minutes at 4° C. and 20,000×g), aliquoted and stored at −80° C. until titration. Viral titers were determined by median tissue culture infectious dose (TCID50) titration, adjusted to weight (g) of lung tissue.

[5] = test system: recRSV-mKate harboring L1502Q; format: cell-based; details: recRSV with LL1502Q relative to L WT
recRSV-mKate [6] = experiment: microbe, parasite or virus in culture; format: cell-based; details: 3D-HAE, progeny virus titers six days after infection, read-out: half-maximal effective concentration (EC50)
[7] = 100 μM, previous studies; cited from earlier work
[8] = orally 50 mg/kg b.i.d., starting 12 hours after infection, compared to vehicle-treated

measles virus polymerase, sequence (P03422 whole entry): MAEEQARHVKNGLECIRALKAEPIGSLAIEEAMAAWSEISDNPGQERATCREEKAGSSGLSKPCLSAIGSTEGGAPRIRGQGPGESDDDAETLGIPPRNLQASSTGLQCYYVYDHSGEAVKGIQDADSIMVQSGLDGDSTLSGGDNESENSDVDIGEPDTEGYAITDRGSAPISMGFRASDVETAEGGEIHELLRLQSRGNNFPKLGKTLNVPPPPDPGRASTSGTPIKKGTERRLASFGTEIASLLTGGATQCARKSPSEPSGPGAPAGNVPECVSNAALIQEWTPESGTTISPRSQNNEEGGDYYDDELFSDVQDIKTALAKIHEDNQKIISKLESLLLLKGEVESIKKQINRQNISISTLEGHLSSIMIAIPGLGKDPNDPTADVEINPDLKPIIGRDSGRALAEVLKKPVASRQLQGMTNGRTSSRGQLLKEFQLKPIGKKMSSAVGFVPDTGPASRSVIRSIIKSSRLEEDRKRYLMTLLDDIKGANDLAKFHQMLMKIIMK
measles virus polymerase, sequence (P12576 whole entry): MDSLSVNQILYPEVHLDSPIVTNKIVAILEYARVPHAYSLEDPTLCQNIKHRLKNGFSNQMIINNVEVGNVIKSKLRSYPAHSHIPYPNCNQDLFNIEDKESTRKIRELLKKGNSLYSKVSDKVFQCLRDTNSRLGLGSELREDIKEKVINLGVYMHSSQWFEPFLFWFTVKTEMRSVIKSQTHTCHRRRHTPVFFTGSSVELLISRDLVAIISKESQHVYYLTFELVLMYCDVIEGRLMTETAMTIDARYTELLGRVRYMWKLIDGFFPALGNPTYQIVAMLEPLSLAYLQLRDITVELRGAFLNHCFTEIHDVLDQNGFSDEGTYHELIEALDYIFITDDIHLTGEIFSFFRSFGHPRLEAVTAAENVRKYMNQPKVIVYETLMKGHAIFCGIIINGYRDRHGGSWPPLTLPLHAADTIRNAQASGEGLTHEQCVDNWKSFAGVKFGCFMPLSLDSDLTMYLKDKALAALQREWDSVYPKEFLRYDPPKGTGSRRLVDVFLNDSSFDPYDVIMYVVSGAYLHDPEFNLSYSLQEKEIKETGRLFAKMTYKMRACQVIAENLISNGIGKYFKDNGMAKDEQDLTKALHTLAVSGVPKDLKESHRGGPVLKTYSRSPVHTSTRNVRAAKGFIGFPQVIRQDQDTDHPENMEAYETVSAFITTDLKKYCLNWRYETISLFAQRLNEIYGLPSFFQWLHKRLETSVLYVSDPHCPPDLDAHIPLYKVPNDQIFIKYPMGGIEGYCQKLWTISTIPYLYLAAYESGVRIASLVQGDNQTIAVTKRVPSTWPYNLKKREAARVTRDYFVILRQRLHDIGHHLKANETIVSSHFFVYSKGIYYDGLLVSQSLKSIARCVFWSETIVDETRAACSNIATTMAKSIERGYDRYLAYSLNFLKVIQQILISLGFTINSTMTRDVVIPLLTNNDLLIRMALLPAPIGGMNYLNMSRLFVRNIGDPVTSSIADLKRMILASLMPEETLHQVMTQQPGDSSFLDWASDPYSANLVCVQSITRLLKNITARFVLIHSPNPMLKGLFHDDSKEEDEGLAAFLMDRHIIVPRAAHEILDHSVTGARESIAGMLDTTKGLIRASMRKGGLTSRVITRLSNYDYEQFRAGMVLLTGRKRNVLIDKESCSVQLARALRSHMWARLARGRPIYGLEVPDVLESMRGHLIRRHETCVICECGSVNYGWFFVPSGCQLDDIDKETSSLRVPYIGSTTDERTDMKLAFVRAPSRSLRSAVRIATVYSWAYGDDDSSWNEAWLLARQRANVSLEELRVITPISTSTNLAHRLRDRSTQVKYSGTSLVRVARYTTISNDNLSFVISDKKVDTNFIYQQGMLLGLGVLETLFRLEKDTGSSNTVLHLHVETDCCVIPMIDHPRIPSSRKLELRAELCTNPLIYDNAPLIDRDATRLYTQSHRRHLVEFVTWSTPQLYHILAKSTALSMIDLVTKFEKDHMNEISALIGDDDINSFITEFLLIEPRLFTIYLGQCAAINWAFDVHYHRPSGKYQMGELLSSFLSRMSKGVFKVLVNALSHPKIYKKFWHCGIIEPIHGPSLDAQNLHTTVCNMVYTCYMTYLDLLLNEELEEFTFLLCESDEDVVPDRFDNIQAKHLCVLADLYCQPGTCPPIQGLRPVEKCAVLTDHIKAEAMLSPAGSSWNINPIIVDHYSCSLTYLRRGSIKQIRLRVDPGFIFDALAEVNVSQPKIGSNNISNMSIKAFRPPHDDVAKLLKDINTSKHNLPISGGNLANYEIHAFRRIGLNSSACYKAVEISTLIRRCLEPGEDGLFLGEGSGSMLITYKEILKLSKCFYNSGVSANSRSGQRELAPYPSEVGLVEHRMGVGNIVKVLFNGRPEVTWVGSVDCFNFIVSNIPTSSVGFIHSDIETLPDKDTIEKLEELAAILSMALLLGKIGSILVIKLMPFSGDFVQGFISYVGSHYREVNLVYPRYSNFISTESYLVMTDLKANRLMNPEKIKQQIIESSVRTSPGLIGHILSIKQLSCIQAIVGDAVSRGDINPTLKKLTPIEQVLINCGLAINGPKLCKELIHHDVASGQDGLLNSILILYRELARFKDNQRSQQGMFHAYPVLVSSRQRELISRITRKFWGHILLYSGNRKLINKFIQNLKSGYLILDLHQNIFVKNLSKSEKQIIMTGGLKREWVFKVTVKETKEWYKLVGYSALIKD

Structure (SMILES) | HEp-2 C50 (second) (HEp-2 cells) [µM] | EC50 (recRSV-fireSMASh [2]) [nM] | EC50 (recRSV-fireSMASh [3]) [nM] | “F1” HAE C50 (second) (“F1” HAE) [µM] | “M4” HAE C50 (second) (“M4” HAE) [µM] | in vivo lung titer reduction in RSV-infected mice (recRSV-A2line19F-[mKate]; 50 mg/kg) | reduction in lung viral load (recRSV-A2line19F-[mKate]; [8]) | CC50 (HEp-2 cells) [nM] | Lung viral load reduction (log10 TCID50/ml) relative to vehicle-treated (recRSV-A2line19F-[mKate]) [log10 TCID50/ml] | other results
Cn1nc(C(F)(F)F)cc1C(=O)Nc1ccc(S(=O)(=O)N2CCCC[C@H]2CCN2CCOCC2)cc1 [ERDRP-0519] | – | – | – | – | – | – | – | – | – | phosphodiester bond formation (measles virus polymerase): completely blocks all phosphodiesterbond formation
COc1c(F)c(F)c(Cn2c3cc(=O)n(Cc4cccc(C(F)(F)F)n4)c(C)c3c(=O)n2-c2ncc(F)cc2F)c(F)c1F [AVG-388] | 10 | 130 | 150 | 10 | 10 | 50 mg/kg: −1.3 log 10 | 1.3 (±0.25) log 10 TCID50/ml | – | – | CC50 at 48 h [1]: > 45000 nM; cytotoxicity (HEp-2 cells): very low cytotoxicity; EC50 (recRSV-fireSMASh L1502Q): > 100000 nM; EC50 (recRSV-fireSMASh Y1631H): 2720 nM; EC50 (recRSV-fireSMASh H1632Q): 4810 nM; disease progression to viral pneumonia (histopathology) (recRSV-mKate [4]): prevented disease progression to viral pneumonia; vasculitis and perivascular cuffing (histopathology) (recRSV-mKate [4]): Only one animal of the AVG-388 group showed mild vasculitis and perivascular cuffing; in vivo lung titer reduction in RSV-infected mice (recRSV-A2line19F-[mKate]; 150 mg/kg): 150 mg/kg: −1.9 log 10; adverse effects (bodyweight and temperature) (recRSV-A2line19F-[mKate]; orally 150 mg/kg b.i.d.): without any signs of adverse effects; reduction in lung viral load (recRSV-A2line19F-[mKate]; orally 150 mg/kg b.i.d.): 1.9 (±0.23) log 10 TCID50/ml
COc1ccc(Cn2c3cc(=O)n(Cc4cccc(Cl)n4)c(C)c3c(=O)n2-c2ncc(F)cc2F)cc1 [AVG-391] | 45 | 350 | 300 | 45 | 45 | – | – | – | – | –
COc1c(F)c(F)c(Cn2c3cc(=O)n(Cc4cccc(C(F)(F)F)n4)c(C)c3c(=O)n2-c2ccccn2)c(F)c1F [AVG-435] | 5 | – | – | – | – | 50 mg/kg: −0.44 log 10 | did not observe as much benefit | > 5000 | −0.44 | –
COc1c(F)c(F)c(Cn2c3cc(=O)n(Cc4cccc(Cl)n4)c(C)c3c(=O)n2-c2ccccn2)c(F)c1F [AVG-389] | 5 | 160 | 70 | 45 | 45 | – | – | – | – | –
COc1c(F)c(F)c(Cn2c3cc(=O)n(Cc4cccc(Cl)n4)c(C)c3c(=O)n2-c2ncc(F)cc2F)c(F)c1F [AVG-390] | 45 | 390 | 250 | 45 | 45 | 50 mg/kg: −0.50 log 10 | slightly lower antiviral effect | > 45000 | −0.5 | –
COc1ccc(Cn2c3cc(=O)n(Cc4cccc(C(F)(F)F)n4)c(C)c3c(=O)n2-c2ncc(F)cc2F)cc1 [AVG-392] | 45 | 920 | 530 | 45 | 45 | – | – | – | – | –
Cc1c2c(=O)n(-c3ccccn3)n(Cc3c(Cl)cccc3Cl)c2cc(=O)n1Cc1cccc(C(F)(F)F)c1 [AVG-446] | – | – | – | – | – | 50 mg/kg: −0.61 log 10 | – | – | – | CC50 at 48 h [1]: > 5000 nM; in vivo lung titer reduction in RSV-infected mice (recRSV-A2line19F-[mKate]; 100 mg/kg): 100 mg/kg: −1.2 log 10
COc1ccc(Cn2c3cc(=O)n(Cc4cccc(C(F)(F)F)n4)c(C)c3c(=O)n2-c2ccccn2)cc1 [AVG-436] | 5 | – | – | – | – | 50 mg/kg: −0.89 log 10 | 0.89 (±0.14) log 10 TCID50/ml | > 5000 | −0.89 | –
COc1ccc(Cn2c3cc(=O)n(Cc4cccc(Cl)n4)c(C)c3c(=O)n2-c2ccccn2)cc1 [AVG-233] | 50 | 360 | 110 | 45 | 45 | 50 mg/kg: −0.44 log 10 | – | – | – | CC50 at 48 h [1]: > 45000 nM; cytotoxicity (HEp-2 cells): very low cytotoxicity; EC50 (recRSV-fireSMASh L1502Q): > 100000 nM; EC50 (recRSV-fireSMASh Y1631H): 2190 nM; EC50 (recRSV-fireSMASh H1632Q): 4420 nM; increase in EC90 [5]: > 2000 fold; EC50 (recRSV-mKate [6]; human respiratory syncytial virus, 144 h): 70 nM; effect on tissue organization and tight junction integrity (3D-HAE; 200 μM, continued multi-day exposure, ZO-1 immunostaining and TEER): no negative effect on tissue organization and tight junction integrity; effect on epithelium integrity (3D-HAE; basolateral 5 μM, RSV-infected, 3 d.p.i.): without detectable negative effect; cytotoxicity [7]: well-tolerated without any signs of cytotoxicity
Cc1c2c(=O)n(-c3ccccn3)n(Cc3c(Cl)cccc3Cl)c2cc(=O)n1Cc1cccc(C(F)(F)F)n1 [AVG-445] | 5 | – | – | – | – | 50 mg/kg: −1.1 log 10 | 1.1 (±0.16) log 10 TCID50/ml | > 5000 | −1.1 | in vivo lung titer reduction in RSV-infected mice (recRSV-A2line19F-[mKate]; 100 mg/kg): 100 mg/kg: −1.9 log 10
O=c1nc(NO)ccn1[C@@H]1O[C@H](CO)[C@@H](O)[C@H]1O [NHC, reference compound] | – | – | – | – | – | – | – | – | – | EC50 (recRSV-mKate [6]): 50 nM
